# Structures can show the parent of a compound that is named as a salt.
# Assay: Effect of polymer embedding on components of DMEM F12 medium (embedded vs non-embedded form);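 further: qualitative label per medium component: Hygros denotes lower hygroscopicity of the embedded form versus the free form, NA denotes not applicable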
# Type: physicochemical
# Settings: component of DMEM F12 medium embedded in polymer, compared to the non-embedded form
# Source text: For all components the effect of polymer embedding is shown.
# In Table 1, “Hygros” means that if the component is embedded according to the present invention and used in the media composition in its embedded form, the ability of said substance to attract and hold water molecules from the surrounding environment is reduced compared to the non-embedded form.
row,Compound,embedding effect
1,O=C(O)CCCCC1CCSS1 (racemic) [DL-alpha-lipoic acid],Oxid
2,O=C(O)CCCC[C@@H]1SC[C@@H]2NC(=O)N[C@@H]21 [Biotin],Stab
3,C[N+](C)(C)CCO.[Cl-] [Choline chloride],Hygros
4,O.O.O.O.O.O=S(=O)([O-])[O-].[Cu+2] [Copper sulfate 5H2O],Solu
5,O.O.O.O.O.O.O.O.O.O=[N+]([O-])[O-].O=[N+]([O-])[O-].O=[N+]([O-])[O-].[Fe+3] [Ferric nitrate 9H2O],Solu
6,O.O.O.O.O.O.O.O=S(=O)([O-])[O-].[Fe+2] [Ferrous sulfate 7H2O],Solu
7,Nc1nc2ncc(CNc3ccc(C(=O)N[C@@H](CCC(=O)O)C(=O)O)cc3)nc2c(=O)[nH]1 [Folic acid],Stab
8,C[C@H](N)C(=O)O [L-Alanine],Solu
9,NC(=O)C[C@H](N)C(=O)O.O [L-Asparagine H2O],Solu
10,Cl.N[C@@H](CS)C(=O)O.O [L-Cysteine hydrochloride H2O],Solu
11,"Cl.Cl.N[C@@H](CSSC[C@H](N)C(=O)O)C(=O)O [L-Cystine 2HCl (mikronisiert), L-Cystine 2HCl (mikronisiert) aus 200635]",Solu
12,NC(=O)CC[C@H](N)C(=O)O [L-Glutamine],Stab
13,Cl.N[C@@H](Cc1cnc[nH]1)C(=O)O.O [L-Histidine HCl H2O],Solu
14,CC[C@H](C)[C@H](N)C(=O)O [L-Isoleucine],Solu
15,CC(C)C[C@H](N)C(=O)O [L-Leucine],Solu
16,Cl.NCCCC[C@H](N)C(=O)O [L-Lysine hydrochloride],Solu
17,CSCC[C@H](N)C(=O)O [L-Methionine],Solu
18,N[C@@H](Cc1ccccc1)C(=O)O [L-Phenylalanine],Solu
19,N[C@@H](CO)C(=O)O [L-Serine],Solu
20,N[C@@H](Cc1ccc([O-])cc1)C(=O)[O-].O.O.[Na+].[Na+] [L-Tyrosine 2Na],Solu
21,Cl.Cl.NCCCCN [Putrescine 2HCl],Stab
22,Cc1ncc(CO)c(CO)c1O.Cl [Pyridoxine HCl],Stab

# Second part, the compound after the results:
row,embedding effect,Compound
1,Solu,C[C@@H](O)[C@H](N)C(=O)O [L-Threonine]
2,Solu,N[C@@H](Cc1c[nH]c2ccccc12)C(=O)O [L-Thryptophan]
3,Solu,CC(C)[C@H](N)C(=O)O [L-Valine]
4,Oxid,CCCCC/C=C\C/C=C\CCCCCCCC(=O)O [Linoleic acid]
5,Stab,NC(=O)c1cccnc1 [Niacinamide]
6,Stab,Cc1cc2nc3c(=O)[nH]c(=O)nc-3n(C[C@H](O)[C@H](O)[C@H](O)CO)c2cc1C [Riboflavin]
7,Stab,CC(=O)C(=O)[O-].[Na+] [Sodium pyruvate]
8,Stab,Cc1ncc(C[n+]2csc(CCO)c2C)c(N)n1 [Thiamine HCl]
9,Solu,O.O.O.O.O.O.O.O=S(=O)([O-])[O-].[Zn+2] [Zinc sulafte 7H2O]
10,Solu,Vitamin B12
